According to US5807535A, “Metal complexes of hydroxyaryl containing aminocarboxylic acid chelating agents” (Australian Nuclear Science & Technology Organisation, priority 1992, dated 1998):
Where two headings read alike, the source gives them in different places.

Assay: Biodistribution of 99mTc complexes in rats
Format: in vivo, Australian Albino Wistar Rats
Conditions: rat, rats; for tissue uptake at 0.5 min: 30 sec; for tissue uptake at 0.05 h: 3 min
Description: A typical method of radiolabelling of the chelator was achieved by dissolving the chelator in a basic solution of saline. The pH was then adjusted to approx. 6 with HCl. Excess stannous chloride was added to the resultant solution followed by one equivalent volume of sodium ^99m TcO4 (10-50 mCi/ml). Final concentration of the chelator was approx. 1 mg/ml. The efficacy of labelling was determined by ITLC-SG. For each product only one main radiochemical species was observed. Each complex was diluted to 15 μCi/100 μl with saline. […] (See FIGS. 1A and 1B).
Selected data from biodistribution results of technetium-99m complexes of No. 1, No. 2 and No 4 in the liver, kidney and blood at 3 minutes is tabulated below.

[1] = blood, read-out: biodistribution blood
[2] = bone, read-out: biodistribution bone
[3] = brain, read-out: biodistribution brain
[4] = eyes, read-out: biodistribution eyes
[5] = heart, read-out: biodistribution heart
[6] = kidneys, read-out: biodistribution kidneys
[7] = liver, read-out: biodistribution liver
[8] = lungs, read-out: biodistribution lungs
[9] = muscle, read-out: biodistribution muscle
[10] = pancreas, read-out: biodistribution pancreas
[11] = skin, read-out: biodistribution skin
[12] = spleen, read-out: biodistribution spleen
[13] = stomach, read-out: biodistribution stomach
[14] = tail, read-out: biodistribution tail
[15] = thymus, read-out: biodistribution thymus
[16] = thyroid, read-out: biodistribution thyroid
[17] = total git, read-out: biodistribution tot GIT

Question: Which tissue uptake at 0.5 min [1] does the source give for `Nc1ccc(O)c(NC(=O)CN(CCN(CC(=O)O)CC(=O)Nc2cc(N)ccc2O)CC(=O)O)c1` [Compound 5] here?
Answer: Its tissue uptake at 0.5 min is 4.92 %ID/g.

Question: And the tissue uptake at 1 min [1]?
Answer: Its tissue uptake at 1 min is 4.22 %ID/g.

Question: And the tissue uptake at 0.05 h [1]?
Answer: The tissue uptake at 0.05 h was 3.26 %ID/g.

Question: What about the tissue uptake at 5 min [1] of the same compound?
Answer: Its tissue uptake at 5 min is 3.13 %ID/g.

Question: What about the tissue uptake at 10 min [1] of the same compound?
Answer: Its tissue uptake at 10 min is 2.59 %ID/g.

Question: And the tissue uptake at 0.5 min [2]?
Answer: The tissue uptake at 0.5 min was 0.37 %ID/g.

Question: What about the tissue uptake at 1 min [2] of the same compound?
Answer: The tissue uptake at 1 min was 0.45 %ID/g.

Question: And the tissue uptake at 0.05 h [2]?
Answer: The tissue uptake at 0.05 h was 0.42 %ID/g.

Question: And the tissue uptake at 5 min [2]?
Answer: The tissue uptake at 5 min was 0.37 %ID/g.

Question: And the tissue uptake at 10 min [2]?
Answer: The tissue uptake at 10 min was 0.36 %ID/g.

Question: What about the tissue uptake at 0.5 min [3] of the same compound?
Answer: Its tissue uptake at 0.5 min is 0.2 %ID/g.

Question: And the tissue uptake at 1 min [3]?
Answer: The tissue uptake at 1 min was 0.22 %ID/g.

Question: And the tissue uptake at 0.05 h [3]?
Answer: The tissue uptake at 0.05 h was 0.16 %ID/g.

Question: And the tissue uptake at 5 min [3]?
Answer: The tissue uptake at 5 min was 0.17 %ID/g.

Question: What about the tissue uptake at 10 min [3] of the same compound?
Answer: Its tissue uptake at 10 min is 0.14 %ID/g.

Question: And the tissue uptake at 0.5 min [4]?
Answer: The tissue uptake at 0.5 min was 0.17 %ID/g.

Question: And the tissue uptake at 1 min [4]?
Answer: The tissue uptake at 1 min was 0.23 %ID/g.

Question: What about the tissue uptake at 0.05 h [4] of the same compound?
Answer: Its tissue uptake at 0.05 h is 0.19 %ID/g.

Question: What about the tissue uptake at 5 min [4] of the same compound?
Answer: Its tissue uptake at 5 min is 0.18 %ID/g.

Question: And the tissue uptake at 10 min [4]?
Answer: The tissue uptake at 10 min was 0.18 %ID/g.

Question: What about the tissue uptake at 0.5 min [5] of the same compound?
Answer: Its tissue uptake at 0.5 min is 1.81 %ID/g.

Question: And the tissue uptake at 1 min [5]?
Answer: The tissue uptake at 1 min was 1.62 %ID/g.

Question: And the tissue uptake at 0.05 h [5]?
Answer: Its tissue uptake at 0.05 h is 1.24 %ID/g.

Question: And the tissue uptake at 5 min [5]?
Answer: Its tissue uptake at 5 min is 1.15 %ID/g.

Question: What about the tissue uptake at 10 min [5] of the same compound?
Answer: Its tissue uptake at 10 min is 1.06 %ID/g.

Question: And the tissue uptake at 0.5 min [6]?
Answer: The tissue uptake at 0.5 min was 4.35 %ID/g.

Question: And the tissue uptake at 1 min [6]?
Answer: Its tissue uptake at 1 min is 5.7 %ID/g.

Question: What about the tissue uptake at 0.05 h [6] of the same compound?
Answer: The tissue uptake at 0.05 h was 4.7 %ID/g.

Question: What about the tissue uptake at 5 min [6] of the same compound?
Answer: The tissue uptake at 5 min was 6.04 %ID/g.

Question: And the tissue uptake at 10 min [6]?
Answer: The tissue uptake at 10 min was 3.61 %ID/g.

Question: What about the tissue uptake at 0.5 min [7] of the same compound?
Answer: The tissue uptake at 0.5 min was 1.11 %ID/g.

Question: And the tissue uptake at 1 min [7]?
Answer: The tissue uptake at 1 min was 0.97 %ID/g.

Question: What about the tissue uptake at 0.05 h [7] of the same compound?
Answer: Its tissue uptake at 0.05 h is 0.83 %ID/g.

Question: What about the tissue uptake at 5 min [7] of the same compound?
Answer: The tissue uptake at 5 min was 0.79 %ID/g.

Question: What about the tissue uptake at 10 min [7] of the same compound?
Answer: The tissue uptake at 10 min was 0.69 %ID/g.

Question: And the tissue uptake at 0.5 min [8]?
Answer: Its tissue uptake at 0.5 min is 1.66 %ID/g.

Question: And the tissue uptake at 1 min [8]?
Answer: The tissue uptake at 1 min was 1.69 %ID/g.

Question: And the tissue uptake at 0.05 h [8]?
Answer: Its tissue uptake at 0.05 h is 1.31 %ID/g.

Question: And the tissue uptake at 5 min [8]?
Answer: Its tissue uptake at 5 min is 1.25 %ID/g.

Question: And the tissue uptake at 10 min [8]?
Answer: The tissue uptake at 10 min was 1.17 %ID/g.

Question: What about the tissue uptake at 0.5 min [9] of the same compound?
Answer: The tissue uptake at 0.5 min was 0.25 %ID/g.

Question: And the tissue uptake at 1 min [9]?
Answer: The tissue uptake at 1 min was 0.3 %ID/g.

Question: What about the tissue uptake at 0.05 h [9] of the same compound?
Answer: Its tissue uptake at 0.05 h is 0.27 %ID/g.

Question: What about the tissue uptake at 5 min [9] of the same compound?
Answer: The tissue uptake at 5 min was 0.25 %ID/g.

Question: And the tissue uptake at 10 min [9]?
Answer: Its tissue uptake at 10 min is 0.23 %ID/g.

Question: And the tissue uptake at 0.5 min [10]?
Answer: Its tissue uptake at 0.5 min is 0.8 %ID/g.

Question: And the tissue uptake at 1 min [10]?
Answer: Its tissue uptake at 1 min is 0.73 %ID/g.

Question: And the tissue uptake at 0.05 h [10]?
Answer: Its tissue uptake at 0.05 h is 0.55 %ID/g.

Question: And the tissue uptake at 5 min [10]?
Answer: Its tissue uptake at 5 min is 0.56 %ID/g.

Question: What about the tissue uptake at 10 min [10] of the same compound?
Answer: Its tissue uptake at 10 min is 0.43 %ID/g.

Question: And the tissue uptake at 0.5 min [11]?
Answer: The tissue uptake at 0.5 min was 0.31 %ID/g.

Question: What about the tissue uptake at 1 min [11] of the same compound?
Answer: Its tissue uptake at 1 min is 0.38 %ID/g.

Question: And the tissue uptake at 0.05 h [11]?
Answer: Its tissue uptake at 0.05 h is 0.43 %ID/g.

Question: What about the tissue uptake at 5 min [11] of the same compound?
Answer: Its tissue uptake at 5 min is 0.41 %ID/g.

Question: What about the tissue uptake at 10 min [11] of the same compound?
Answer: The tissue uptake at 10 min was 0.46 %ID/g.

Question: And the tissue uptake at 0.5 min [12]?
Answer: Its tissue uptake at 0.5 min is 0.83 %ID/g.

Question: And the tissue uptake at 1 min [12]?
Answer: Its tissue uptake at 1 min is 0.98 %ID/g.

Question: What about the tissue uptake at 0.05 h [12] of the same compound?
Answer: Its tissue uptake at 0.05 h is 0.83 %ID/g.

Question: What about the tissue uptake at 5 min [12] of the same compound?
Answer: Its tissue uptake at 5 min is 0.83 %ID/g.

Question: And the tissue uptake at 10 min [12]?
Answer: Its tissue uptake at 10 min is 0.72 %ID/g.

Question: And the tissue uptake at 0.5 min [13]?
Answer: Its tissue uptake at 0.5 min is 0.47 %ID/g.

Question: What about the tissue uptake at 1 min [13] of the same compound?
Answer: The tissue uptake at 1 min was 0.42 %ID/g.

Question: What about the tissue uptake at 0.05 h [13] of the same compound?
Answer: The tissue uptake at 0.05 h was 0.36 %ID/g.

Question: What about the tissue uptake at 5 min [13] of the same compound?
Answer: Its tissue uptake at 5 min is 0.37 %ID/g.

Question: What about the tissue uptake at 10 min [13] of the same compound?
Answer: The tissue uptake at 10 min was 0.24 %ID/g.

Question: What about the tissue uptake at 0.5 min [14] of the same compound?
Answer: The tissue uptake at 0.5 min was 0.22 %ID/g.

Question: And the tissue uptake at 1 min [14]?
Answer: Its tissue uptake at 1 min is 0.14 %ID/g.

Question: What about the tissue uptake at 0.05 h [14] of the same compound?
Answer: The tissue uptake at 0.05 h was 0.17 %ID/g.

Question: What about the tissue uptake at 5 min [14] of the same compound?
Answer: Its tissue uptake at 5 min is 0.15 %ID/g.

Question: And the tissue uptake at 10 min [14]?
Answer: The tissue uptake at 10 min was 0.19 %ID/g.

Question: And the tissue uptake at 0.5 min [15]?
Answer: The tissue uptake at 0.5 min was 0.63 %ID/g.

Question: And the tissue uptake at 1 min [15]?
Answer: The tissue uptake at 1 min was 0.56 %ID/g.

Question: And the tissue uptake at 0.05 h [15]?
Answer: The tissue uptake at 0.05 h was 0.45 %ID/g.

Question: And the tissue uptake at 5 min [15]?
Answer: The tissue uptake at 5 min was 0.54 %ID/g.

Question: What about the tissue uptake at 10 min [15] of the same compound?
Answer: The tissue uptake at 10 min was 0.39 %ID/g.

Question: And the tissue uptake at 0.5 min [16]?
Answer: The tissue uptake at 0.5 min was 1.85 %ID/g.

Question: What about the tissue uptake at 1 min [16] of the same compound?
Answer: The tissue uptake at 1 min was 2.43 %ID/g.

Question: What about the tissue uptake at 0.05 h [16] of the same compound?
Answer: The tissue uptake at 0.05 h was 1.59 %ID/g.

Question: And the tissue uptake at 5 min [16]?
Answer: Its tissue uptake at 5 min is 1.73 %ID/g.

Question: What about the tissue uptake at 10 min [16] of the same compound?
Answer: The tissue uptake at 10 min was 1.71 %ID/g.

Question: What about the tissue uptake at 0.5 min [17] of the same compound?
Answer: Its tissue uptake at 0.5 min is 0.35 %ID/g.

Question: What about the tissue uptake at 1 min [17] of the same compound?
Answer: The tissue uptake at 1 min was 0.34 %ID/g.

Question: What about the tissue uptake at 0.05 h [17] of the same compound?
Answer: The tissue uptake at 0.05 h was 0.31 %ID/g.

Question: What about the tissue uptake at 5 min [17] of the same compound?
Answer: Its tissue uptake at 5 min is 0.29 %ID/g.

Question: And the tissue uptake at 10 min [17]?
Answer: The tissue uptake at 10 min was 0.27 %ID/g.
